Like-named read-outs stand apart in the source and are kept apart here.
Assays:
Assay in all cases: stopped-flow CO2 hydration assay
Assay type in all cases: biochemical
[1] = biological target: T1, hCA I (Homo sapiens, UniProt P00915)
T1 construct: gene CA1; recombinant, cytosolic isoform
Source text: stopped-flow CO2 hydration assay on hCA I

[2] = biological target: T2, hCA IV (Homo sapiens, UniProt P22748)
T2 construct: gene CA4
Source text: stopped-flow CO2 hydration assay on hCA IV

[3] = biological target: T3, hCA II (Homo sapiens, UniProt P00918)
T3 construct: gene CA2; recombinant, cytosolic isoform
Source text: stopped-flow CO2 hydration assay on hCA II

[4] = CO2 hydration, […] Hepes pH […] °C, […] Na2SO4 or NaClO4, […] min preincubation

T2 sequence (P22748 19-284): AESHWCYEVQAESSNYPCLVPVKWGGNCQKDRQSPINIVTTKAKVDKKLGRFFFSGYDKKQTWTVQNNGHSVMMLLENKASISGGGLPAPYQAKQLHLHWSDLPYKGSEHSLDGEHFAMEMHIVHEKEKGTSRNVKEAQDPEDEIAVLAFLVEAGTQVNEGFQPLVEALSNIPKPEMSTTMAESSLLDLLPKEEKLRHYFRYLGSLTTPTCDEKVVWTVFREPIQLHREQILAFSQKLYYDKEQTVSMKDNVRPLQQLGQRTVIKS
T1 sequence (P00915 2-261): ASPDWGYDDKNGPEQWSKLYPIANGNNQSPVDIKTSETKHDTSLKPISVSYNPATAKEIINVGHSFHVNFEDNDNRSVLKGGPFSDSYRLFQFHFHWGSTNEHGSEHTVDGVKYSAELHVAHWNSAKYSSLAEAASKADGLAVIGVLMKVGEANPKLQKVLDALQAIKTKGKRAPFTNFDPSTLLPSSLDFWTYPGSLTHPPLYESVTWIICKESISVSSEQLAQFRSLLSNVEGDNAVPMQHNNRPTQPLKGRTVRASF

| Ki [1] [nM] | Ki [2] [nM] | Ki [3] [nM] | Ki [1, 4] [nM] | Ki [3, 4] [nM] | SMILES |
| --- | --- | --- | --- | --- | --- |
| 8130 | 6760 | 8760 |  |  | Cc1cc(C)cc(COc2cccc3ccc(C(=O)Nc4ccc(S(N)(=O)=O)cc4)nc23)c1 [5d, 8-((3,5-Dimethylbenzyl)oxy)-N-(4-sulfamoylphenyl)quinoline-2-carboxamide] |
| 6470 | 807 | 5170 |  |  | NS(=O)(=O)c1ccc(NC(=O)c2ccc3cccc(OCc4cccc(Cl)c4)c3n2)cc1 [5e, 8-((3-Chlorobenzyl)oxy)-N-(4-sulfamoylphenyl)quinoline-2-carboxamide] |
| 6560 | 787 | 957 |  |  | NS(=O)(=O)c1ccc(NC(=O)c2ccc3cccc(OCc4cc(F)ccc4F)c3n2)cc1 [5f, 8-((2,5-Difluorobenzyl)oxy)-N-(4-sulfamoylphenyl)quinoline-2-carboxamide] |
| 6910 | 657 | 5110 |  |  | C#CCOc1cccc2ccc(C(=O)Nc3ccc(S(N)(=O)=O)cc3)nc12 [5g, 8-(Prop-2-yn-1-yloxy)-N-(4-sulfamoylphenyl)quinoline-2-carboxamide] |
|  | 1750 |  | 61.9 | 33 | COc1cccc2ccc(C(=O)Nc3ccc(S(N)(=O)=O)cc3)nc12 [5h, 8-Methoxy-N-(4-sulfamoylphenyl)quinoline-2-carboxamide] |

More lines, now with the values behind:

| SMILES | Ki [1] [nM] | Ki [2] [nM] | Ki [3] [nM] | Ki [1, 4] [nM] | Ki [3, 4] [nM] |
| --- | --- | --- | --- | --- | --- |
| NS(=O)(=O)c1ccc(NC(=O)c2ccc3cccc(OCc4ccc([N+](=O)[O-])cc4)c3n2)cc1 [5a, 8-((4-Nitrobenzyl)oxy)-N-(4-sulfamoylphenyl)quinoline-2-carboxamide] | 641 | 691 | 88.4 |  |  |
| NS(=O)(=O)c1ccc(NC(=O)c2ccc3cccc(OCc4ccccc4Br)c3n2)cc1 [5b, 8-((2-Bromobenzyl)oxy)-N-(4-sulfamoylphenyl)quinoline-2-carboxamide] | 444 | 3930 | 85.7 |  |  |
| NS(=O)(=O)c1ccc(NC(=O)c2ccc3cccc(OCc4ccccc4)c3n2)cc1 [5c, 8-(Benzyloxy)-N-(4-sulfamoylphenyl)quinoline-2-carboxamide] | 5290 | 6410 | 8340 |  |  |

Source: article PMC6586119, “Synthesis and biological evaluation of novel 8-substituted quinoline-2-carboxamides as carbonic anhydrase inhibitors” (Journal of Enzyme Inhibition and Medicinal Chemistry, 2019)
